In publication PMC6954543, “A window-of-opportunity trial of the CXCR1/2 inhibitor reparixin in operable HER-2-negative breast cancer” (Breast Cancer Research : BCR, 2020):

Columns and labels:
[1] = test system: ALDH1, CD24 and CD44 transcripts; assay: CSC markers in core biopsies by RT-PCR; assay type: in vivo, human; settings: 14 patients
Method: Core biopsy samples were placed in RNAlater, suspended in 700 μL of TRIzol® LS Reagent (Invitrogen) and homogenized using Bullet Blender (Next Advance Inc.). Next, RNA was extracted using the miRNeasy mini kit (Qiagen) and processed with the QIACube (Qiagen) automated low-throughput sample prep system. Thereafter, the isolated RNAs were reverse transcribed to cDNA (High Capacity cDNA Reverse Transcription Kit, ABI) and subsequently underwent quantitative RT-PCR (qRT-PCR) using 7900HT Fast Real-Time PCR System (ABI) to detect transcripts of markers associated with CSC (ALDH1, CD44, CD24, Akt, and PI3K), EMT (TWIST1, FOXC2, SNAIL1, SNAIL2, TG2, and ZEB1), epithelial cells (KRT19 and EpCAM), and leukocytes (CD45). We used average delta Ct (dCT) < 2 as a cutoff to determine the relative gene expression level. Since normal tissue was not available to act as the normalizer, we used GAPDH as the endogenous control (dCT = CTtarget − CTendogenous control).

[2] = test system: CXCR1+ cells; assay: CXCR1+ cell evaluation in core biopsy samples by flow cytometry; assay type: in vivo, human
Text: Patients underwent core biopsies at baseline (day − 14 to 0) and at the completion of therapy (day 21). Three to five ≥ 18-gage needle biopsies were taken to measure the changes in CSC populations and pathway markers. If not performed at the completion of treatment, a core biopsy was taken on the day of surgery by the same technique. A sample of the surgically resected tumor tissue was also taken. Additional analyses were directed to determine CXCR1 (PerCP/Cy5.5 mouse anti-human CD181 (CXCR1; BioLegend, San Diego, CA) and cell lineages using the following antibodies: APC mouse anti-human CD44 (BD Bioscience, San Jose, CA; catalog #559942), PE-Cy7 mouse anti-human CD24 (#561646), PE mouse anti-human CD2 (#555327), PE mouse anti-human CD31 (#555446), PE mouse anti-human CD3 (#555333), PE mouse anti-human CD18 (#555924), PE mouse anti-human CD16 (#555407), PE mouse anti-human CD19 (#555413), and PE mouse anti-human CD45 (#555483).

[3] = test system: P-AKT; assay: P-AKT staining of core biopsies by IHC; assay type: in vivo, human; settings: day 21 (16/20 at baseline)
Method: All IHC analyses and scoring for extent (0 to 4) and intensity (0 to 3) were performed at the Houston Memorial Hermann Pathology laboratory as previously described. After antigen retrieval (Tris-Cl, pH 9.0), paraffin-embedded sections of sample tumors were incubated for 1 h at room temperature with the following antibodies: anti-human CXCR1 (rabbit polyclonal to CXCR1 - C-terminal, ab137351; Abcam, Cambridge, MA), anti-human CD31 (clone JC70A, #IS610; Dako, Glostrup, Denmark), anti-human p62 (clone SQSTM1/p62, # 5114; Cell Signaling), anti-human AKT (rabbit polyclonal to pan-AKT, # ab8805; Abcam), anti-human FAK (clone pY861, #44-626G; Invitrogen, Qiagen, Carlsbad, CA), anti-human phospho-AKT (clone Ser473 (D9E), #4060; Cell Signaling), anti-human phospho-FAK (clone Y397, #ab4803; Abcam), and anti-human LC3B (clone D11, #3868; Cell Signaling). For the evaluation of extent, the following semi-quantitative score method (0 to 4) was used: 0, no positive cells; 1, 1–25%; 2, 26–50%; 3, 51–75%; and 4, 76–100%.

[4] = test system: CXCL8 and other cytokines; assay: Serum cytokine levels (Milliplex/Luminex); assay type: in vivo, human; settings: day 1 vs day 21
Method: The concentrations of interleukin (IL)-1β, IL-6, CXCL8, tumor necrosis factor (TNF)-α, granulocyte macrophage colony stimulating factor (GM-CSF), vascular endothelial growth factor (VEGF), and basic fibroblast growth factor (b-FGF) were measured in sera obtained from patients on days 1 and 21 of the study.
In brief, serum cytokines levels were measured using a method, as previously published. Serum samples were processed and aliquoted within 24 hours for archiving at -80 °C. Samples were analyzed in batch using Milliplex bead kits (EMD Millipore Corporation, Billerica, MA) according to the manufacturer’s protocol with overnight incubations and an additional point added at the low end of the standard curve, and analyzed using a Luminex LX100 (Luminex Corporation, Austin, TX). BioPlex control and analysis software Version 5.0, (BioRad, Hercules, CA) was used.

[5] = test system: CD18+ PMNs; assay: Adhesion molecule expression on peripheral blood PMNs by flow cytometry; assay type: in vivo, human; settings: after 21 days of treatment vs baseline; p < 0.05
Method: The expression of adhesion molecules (CD11b, CD18, and CD66b) on PMNs was investigated. Typically, 100 µL of whole blood were incubated with 10nM CXCL8 for 10 minutes at room temperature to upregulate the expression of adhesion molecules. Untreated whole blood samples were included as control. We measured the percentage of PMNs that expressed CD11b, CD18, and CD66b as well as the Mean Fluorescence of Intensity (MFI) of each adhesion molecule as a measure of expression density by flow cytometry.

[6] = test system: monocytes and PMNs; assay: Intracellular cytokine production by monocytes and PMNs by flow cytometry; assay type: in vivo, human; settings: without or with activation by LPS and/or CXCL8; data not shown
Method: Intracellular cytokine production by peripheral blood monocytes and PMNs were assessed using a modification of previously published procedure. Briefly, monocytes and PMNs in whole blood were activated with CXCL8 (10nM), LPS ([…]), and LPS+CXCL8 for 2 hours at 37 °C before the addition of Brefeldin A (BFA) for another 3 hours to block the transportation of the intracellular cytokines from the Golgi to the cell surface. Thereafter, red blood cells were lysed with 1×FACSTM Lysing Solution (BD Biosciences) and the membrane of activated cells permeabilized with 1×FACSTM Perm 2 solution (BD Biosciences). Next, the activated monocytes and PMNs were stained with fluorochrome-conjugated specific antibodies to IL-1β, TNF-α, CXCL8, and IL-6 before the samples were analyzed by flow cytometry. The percentages of monocytes and PMNs that produced IL-1β, TNF-α, CXCL8, and IL-6 were recorded.

[7] = test system: metastatic HER-2-negative BC; parameters: method as in PMID 28539464; settings: in combination with weekly paclitaxel, cited from earlier work
[8] = test system: CXCR1/2+ cells; parameters: method as in PMID 22996693; settings: preclinical models; cited from earlier work

CC(C)Cc1ccc([C@@H](C)C(=O)NS(C)(=O)=O)cc1 [reparixin]
patients negative for CSC at both baseline and day 21 [1]: 6 patients
patients with CSC (transcripts for CD44 but not CD24) at both baseline and day 21 [1]: Five
ALDH1 transcripts at day 21 ([1]; 1/14 expressed ALDH1 at baseline): all patients were negative
patients with CXCR1+ tumor cells decreased at day 21 [2]: 7/13
patients with all viable CXCR1+ cells reduced at day 21 vs baseline [2]: 6/13
patients with parallel decrease in both CXCR1+ cell populations [2]: 4/13
patients with value of 0 for P-AKT, extent and intensity [3]: 11/15
other cytokines (IL-1β, IL-6, TNF-α, GM-CSF, VEGF, b-FGF), change [4]: No statistically significant changes
percentage of CD18+ PMNs following in vitro stimulation with CXCL8 [5]: decreased
production of inflammatory cytokines (CXCL8, IL-6, TNF-α, IL-1β) by monocytes and PMNs [6]: No statistically significant difference
long-lasting CR ([7]; 27 evaluable patients): 2
response rate ([7]; 27 evaluable patients): 30%
gastrointestinal disorders, share of all TEAEs ([7]; all grade ≤ 2): 39%
Grade 3 treatment-related TEAE, share of all reports [7]: 2.7%
recruitment of CXCR1/2+ cells from the bloodstream to visceral sites [8]: reduce
